Experimental data from the supplement of paper PMC10307832.

Tests used:
Assay in all cases: relative viability (nuclei count vs DMSO), 5 days (fraction); higher = more cells survive
MLN4924 + Pemetrexed = compound: NS(=O)(=O)OC[C@@H]1C[C@@H](n2ccc3c(N[C@H]4CCc5ccccc54)ncnc32)C[C@@H]1O [MLN4924] + Nc1nc2[nH]cc(CCc3ccc(C(=O)N[C@@H](CCC(=O)O)C(=O)O)cc3)c2c(=O)[nH]1 [Pemetrexed] (partner 0.2 µM)
Outline: (§1)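 Relative viability divides the nuclei count in treated wells by that in vehicle wells. Lung cancer cell lines were seeded in 1536-well plates, dosed by pin tool the next day, and fixed and stained after 5 days in one step with final 0.05% Triton X-100, 1% formaldehyde and 1 ug/ml Hoechst. Dosing was a single drug or a fixed anchor-drug dose plus five library-drug doses (not always all listed) in √10 steps, and values are medians of duplicate plates imaged at 4×.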

MLN4924 + Navitoclax = compound: NS(=O)(=O)OC[C@@H]1C[C@@H](n2ccc3c(N[C@H]4CCc5ccccc54)ncnc32)C[C@@H]1O [MLN4924] + CC1(C)CCC(c2ccc(Cl)cc2)=C(CN2CCN(c3ccc(C(=O)NS(=O)(=O)c4ccc(N[C@H](CCN5CCOCC5)CSc5ccccc5)c(S(=O)(=O)C(F)(F)F)c4)cc3)CC2)C1 [Navitoclax] (partner 0.5 µM)
Outline: as §1

MLN4924 + Foretinib = compound: NS(=O)(=O)OC[C@@H]1C[C@@H](n2ccc3c(N[C@H]4CCc5ccccc54)ncnc32)C[C@@H]1O [MLN4924] + COc1cc2c(Oc3ccc(NC(=O)C4(C(=O)Nc5ccc(F)cc5)CC4)cc3F)ccnc2cc1OCCCN1CCOCC1 [Foretinib] (partner 0.25 µM)
Outline: as §1

MLN4924 + Dasatinib = compound: NS(=O)(=O)OC[C@@H]1C[C@@H](n2ccc3c(N[C@H]4CCc5ccccc54)ncnc32)C[C@@H]1O [MLN4924] + Cc1nc(Nc2ncc(C(=O)Nc3c(C)cccc3Cl)s2)cc(N2CCN(CCO)CC2)n1 [Dasatinib] (partner 0.075 µM)
Outline: as §1

| Cell Line | relative viability (MLN4924 + Pemetrexed; first compound 0.04 µM) | relative viability (MLN4924 + Pemetrexed; first compound 0.1265 µM) | relative viability (MLN4924 + Pemetrexed; first compound 0.4 µM) | relative viability (MLN4924 + Pemetrexed; first compound 1.265 µM) | relative viability (MLN4924 + Pemetrexed; first compound 4 µM) | relative viability (MLN4924 + Navitoclax; first compound 0.04 µM) | relative viability (MLN4924 + Navitoclax; first compound 0.1265 µM) | relative viability (MLN4924 + Navitoclax; first compound 0.4 µM) | relative viability (MLN4924 + Navitoclax; first compound 1.265 µM) | relative viability (MLN4924 + Navitoclax; first compound 4 µM) | relative viability (MLN4924 + Foretinib; first compound 0.04 µM) | relative viability (MLN4924 + Foretinib; first compound 0.1265 µM) | relative viability (MLN4924 + Foretinib; first compound 0.4 µM) | relative viability (MLN4924 + Foretinib; first compound 1.265 µM) | relative viability (MLN4924 + Foretinib; first compound 4 µM) | relative viability (MLN4924 + Dasatinib; first compound 0.04 µM) | relative viability (MLN4924 + Dasatinib; first compound 0.1265 µM) | relative viability (MLN4924 + Dasatinib; first compound 0.4 µM) | relative viability (MLN4924 + Dasatinib; first compound 1.265 µM) | relative viability (MLN4924 + Dasatinib; first compound 4 µM) |
| --- | --- | --- | --- | --- | --- | --- | --- | --- | --- | --- | --- | --- | --- | --- | --- | --- | --- | --- | --- | --- |
| NCI-H838 | 0.225 | 0.2 | 0.188 | 0.173 | 0.164 | 0.831 | 0.307 | 0.211 | 0.16 | 0.196 | 0.684 | 0.503 | 0.22 | 0.174 | 0.16 | 0.268 | 0.271 | 0.245 | 0.199 | 0.219 |
| NCI-H1355 | 1.01 | 1.07 | 0.879 | 0.547 | 0.256 | 0.982 | 0.847 | 0.657 | 0.268 | 0.302 | 0.943 | 0.91 | 0.889 | 0.472 | 0.201 | 0.715 | 0.792 | 0.767 | 0.481 | 0.216 |
| NCI-H1395 | 0.847 | 0.773 | 0.678 | 0.349 | 0.305 | 0.981 | 1.19 | 0.651 | 0.407 | 0.375 | 0.951 | 0.818 | 0.538 | 0.41 | 0.362 | 0.474 | 0.493 | 0.552 | 0.507 | 0.331 |
| NCI-H1437 | 0.314 | 0.275 | 0.28 | 0.208 | 0.177 | 1.03 | 0.906 | 0.571 | 0.347 | 0.143 | 0.835 | 1.15 | 0.739 | 0.465 | 0.22 | 0.276 | 0.456 | 0.556 | 0.235 | 0.11 |
| NCI-H1650 | 0.377 | 0.471 | 0.248 | 0.168 | 0.185 | 1.02 | 0.739 | 0.438 | 0.156 | 0.176 | 0.92 | 0.951 | 0.325 | 0.217 | 0.19 | 0.41 | 0.291 | 0.267 | 0.166 | 0.179 |
| NCI-H1651 | 0.632 | 0.693 | 0.703 | 0.509 | 0.171 | 1.1 | 1.08 | 0.492 | 0.267 | 0.142 | 0.74 | 0.754 | 0.656 | 0.436 | 0.173 | 0.411 | 0.473 | 0.431 | 0.167 | 0.116 |
| NCI-H1666 | 0.734 | 0.742 | 0.645 | 0.409 | 0.488 | 0.858 | 0.503 | 0.328 | 0.213 | 0.224 | 1.02 | 0.696 | 0.541 | 0.304 | 0.346 | 0.898 | 0.781 | 0.503 | 0.238 | 0.28 |
| NCI-H1734 | 0.497 | 0.514 | 0.252 | 0.128 | 0.125 | 0.943 | 0.814 | 0.331 | 0.103 | 0.0958 | 0.938 | 0.866 | 0.241 | 0.145 | 0.134 | 0.636 | 0.588 | 0.305 | 0.0902 | 0.102 |
| NCI-H1755 | 0.378 | 0.268 | 0.282 | 0.178 | 0.186 | 0.921 | 0.677 | 0.392 | 0.178 | 0.154 | 0.979 | 0.804 | 0.421 | 0.243 | 0.184 | 0.417 | 0.464 | 0.463 | 0.237 | 0.221 |
| NCI-H1793 | 0.892 | 0.698 | 0.914 | 0.433 | 0.303 | 0.386 | 0.458 | 0.412 | 0.276 | 0.283 | 0.822 | 1.08 | 0.957 | 0.461 | 0.256 | 0.384 | 0.366 | 0.408 | 0.345 | 0.325 |
| NCI-H1915 | 0.625 | 0.66 | 0.479 | 0.144 | 0.176 | 0.725 | 0.744 | 0.642 | 0.246 | 0.265 | 1.07 | 0.929 | 0.906 | 0.314 | 0.232 | 0.352 | 0.353 | 0.318 | 0.222 | 0.177 |
| NCI-H1944 | 0.602 | 0.56 | 0.405 | 0.186 | 0.157 | 1.05 | 0.979 | 0.873 | 0.209 | 0.215 | 0.771 | 0.58 | 0.301 | 0.182 | 0.161 | 0.218 | 0.232 | 0.23 | 0.155 | 0.133 |
| NCI-H1975 | 0.284 | 0.331 | 0.278 | 0.272 | 0.209 | 1.15 | 1.27 | 1.14 | 0.571 | 0.309 | 0.962 | 1.08 | 1.27 | 0.488 | 0.207 | 0.39 | 0.385 | 0.483 | 0.678 | 0.324 |
| NCI-H1993 | 0.592 | 0.471 | 0.421 | 0.441 | 0.382 | 0.962 | 0.618 | 0.584 | 0.505 | 0.584 | 0.624 | 0.59 | 0.517 | 0.553 | 0.602 | 0.622 | 0.524 | 0.557 | 0.491 | 0.51 |
| NCI-H2009 | 0.941 | 0.884 | 0.218 | 0.133 | 0.0755 | 0.809 | 0.365 | 0.293 | 0.0903 | 0.0793 | 1.02 | 0.494 | 0.344 | 0.193 | 0.104 | 0.374 | 0.261 | 0.166 | 0.0589 | 0.0792 |
